Data as given in patent US20220227761A1, “OXOACRIDINYL ACETIC ACID DERIVATIVES AND METHODS OF USE” (STINGTHERA, INC., priority 2019, published 2022).

Assays:
[1] = test system: STING protein; IRF/IFN signaling in THP-1 R232 cells; assay: Cell based reporter assay, THP-1 R232 IRF-luc; settings: Homo sapiens, THP1-dual-KI R232 cells, IRF luciferase reporter; for Emax: maximum measured activity, read-out: THP 1-dual-KI R232_IRF(Luciferase)_Activity Maximum measured (%); for IC50: read-out: THP 1-dual-KI R232_IRF(Luciferase) IC50
From the text: Cell reporter assays were developed to measure the ability of compounds of the application to activate the STING protein and activate both IRF/IFN and the NFkB signaling pathways in the myeloid derived cell line THP-1, which is commercially available from several suppliers. Briefly, THP-1 monocytes were transfected and selected for stable integration of 2 reporter constructs. Clones incorporating stably integrated vectors were further selected by antibiotic resistance to blastocidin and zeocin. The reporter constructs included: (1) firefly luciferase reporter gene under the control of an ISG54 promoter fused to five interferon (IFN)-stimulated response elements to measure IRF transcription factor binding activity and (2) secreted embryonic alkaline phosphatase reporter gene under transcription control of an IFN-beta minimal promoter fused to 5 copies of the NFkB consensus transcriptional response element and 3 copies of the c-Rel binding site.
The resulting THP-1 cell line was further modified to incorporate 3 amino acid point mutations (H71R A230G Q293R). This modification of the native TMEM173 gene in THP-1 cells (HAQ) was designed to produce a cell reporter that expressed the most common allelic variant in the human population (THP-1 R232, available from InvivoGen). Alternatively, the TMEM173 gene was knocked out to provide a congenic control to counter-screen for compound activation that was independent of the STING protein (THP-1 STING KO).
Once cell lines were established, reporter assay protocols were developed and optimized to screen small molecule compounds for agonist activity. Assay optimization for efficacy and Z′ value included titration of the following parameters:
• 1. Cell pre-activation with PMA • 2. Cell seeding density • 3. DMSO tolerance • 4. Media selection • 5. FBS concentration • 6. Incubation time • 7. Co-Assessment of cell viability by CTG assay • 8. Appropriate HPE and ZPE controls • 9. Dose Response Titration
• 1. No pre-activation with PMA • 2. 5×10^4 cells/well in 96 well plate format • 3. <0.5% DMSO • 4. RPMI 1640+2.5 mg/ml glucose • 5. 10% FBS • 6. 14-18 hr incubation • 7. Cell Titer Glo reagent (Promega) following supernatant removal • 8. […] 8 point, 2 fold, duplicate starting at 150 μM

hSTING-R232 (aa140-379) = hSTING-R232 (aa140-379) (Homo sapiens, UniProt Q86WV6, H232R); assay: STING differential scanning fluorimetry (DSF) assay, hSTING WT; settings: shift in melting temperature apo vs ligand-bound
hSTING-R232 (aa140-379), sequence (Q86WV6 140-379 H232R): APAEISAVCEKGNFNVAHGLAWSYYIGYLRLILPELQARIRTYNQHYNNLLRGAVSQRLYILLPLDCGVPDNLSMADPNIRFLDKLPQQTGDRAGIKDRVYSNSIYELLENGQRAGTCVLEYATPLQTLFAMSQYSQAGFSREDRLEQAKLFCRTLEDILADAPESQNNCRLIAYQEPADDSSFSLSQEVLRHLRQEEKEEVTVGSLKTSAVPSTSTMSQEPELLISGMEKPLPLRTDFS

[2] = biological target: human STING protein (140-379), WT (Homo sapiens, UniProt Q86WV6, H232R); assay: Radiometric filtration binding competition assay (FBA), hSTING-WT; settings: WT-hSWAT IC50 (μM), WT_FBA_HIS-SUMO-hSWAT; wild-type human STING; competition with [H3] 2′3′cGAMP
human STING protein (140-379), WT, sequence (Q86WV6 140-379 H232R): as above

With `COc1cc2c(=O)c3ccc(Cl)c(N(C)C)c3n(CC(=O)O)c2cc1OC` [Compound 1] as the molecule, how does the Emax [1] read?
Its Emax is 5 to 25%.

And the IC50 [1]?
Its IC50 is > 150 µM.

And the “WT_DSF_hSWAT Tm Shift (° C.)” value (hSTING-R232 (aa140-379))?
The value was “B (“B” = 0-2° C.)”.

And the IC50 [2]?
Its IC50 is < 20 µM.

Which results are given for `COc1ccc2c(=O)c3ccc(Cl)c(N(C)C)c3n(CC(=O)O)c2c1` [Compound 2]?
Emax [1]: > 50%; IC50 [1]: < 50 µM; WT_DSF_hSWAT Tm Shift (° C.) (hSTING-R232 (aa140-379)): D (“D” >7° C.); IC50 [2]: 20 to 100 µM

With `CN(C)c1c(Cl)ccc2c(=O)c3cc(Cl)c(Br)cc3n(CC(=O)O)c12` [Compound 3] as the molecule, how does the Emax [1] read?
Its Emax is > 50%.

What about the IC50 [1] of the same molecule?
Its IC50 is < 50 µM.

What about the “WT_DSF_hSWAT Tm Shift (° C.)” value (hSTING-R232 (aa140-379)) of the same molecule?
Its value is “C (“C” = 2-7° C.)”.

And the IC50 [2]?
The IC50 was 20 to 100 µM.

Which results are given for `Cc1cccn1-c1ccc2c(=O)c3ccc(Cl)c(N(C)C)c3n(CC(=O)O)c2c1` [Compound 4]?
Emax [1]: > 50%; IC50 [1]: < 50 µM; WT_DSF_hSWAT Tm Shift (° C.) (hSTING-R232 (aa140-379)): D (“D” >7° C.); IC50 [2]: < 20 µM

For `CN(C)c1c(Cl)ccc2c(=O)c3ccc(-n4ccnc4)cc3n(CC(=O)O)c12` [Compound 5], which Emax [1] is on record?
The Emax was > 50%.

What about the IC50 [1] of the same molecule?
The IC50 was < 50 µM.

And the “WT_DSF_hSWAT Tm Shift (° C.)” value (hSTING-R232 (aa140-379))?
The value was “C (“C” = 2-7° C.)”.

What about the IC50 [2] of the same molecule?
The IC50 was 20 to 100 µM.

What does the source list for `CN(C)c1c(Cl)ccc2c(=O)c3ccc(-n4cccn4)cc3n(CC(=O)O)c12` [Compound 6]?
Emax [1]: > 50%; IC50 [1]: < 50 µM; WT_DSF_hSWAT Tm Shift (° C.) (hSTING-R232 (aa140-379)): D (“D” >7° C.); IC50 [2]: < 20 µM

Which Emax [1] does the source give for `CN(C)c1c(Cl)ccc2c(=O)c3ccc(-n4cccc4)cc3n(CC(=O)O)c12` [Compound 7] here?
Its Emax is > 50%.

What about the IC50 [1] of the same molecule?
Its IC50 is < 50 µM.

What about the “WT_DSF_hSWAT Tm Shift (° C.)” value (hSTING-R232 (aa140-379)) of the same molecule?
Its value is “D (“D” >7° C.)”.

And the IC50 [2]?
The IC50 was < 20 µM.

What does the source list for `CN(C)c1c(Cl)ccc2c(=O)c3ccc(-c4ccncc4)cc3n(CC(=O)O)c12` [Compound 8]?
Emax [1]: > 50%; IC50 [1]: < 50 µM; WT_DSF_hSWAT Tm Shift (° C.) (hSTING-R232 (aa140-379)): D (“D” >7° C.); IC50 [2]: < 20 µM

`CN(C)c1c(Cl)ccc2c(=O)c3ccc(-c4cccnc4)cc3n(CC(=O)O)c12` [Compound 9] was tested. Which Emax [1] did it give?
The Emax was > 50%.

What about the IC50 [1] of the same molecule?
The IC50 was < 50 µM.

And the “WT_DSF_hSWAT Tm Shift (° C.)” value (hSTING-R232 (aa140-379))?
Its value is “C (“C” = 2-7° C.)”.

And the IC50 [2]?
Its IC50 is < 20 µM.

`CN(C)c1c(Cl)ccc2c(=O)c3ccc(-c4ccccn4)cc3n(CC(=O)O)c12` [Compound 10] was tested. Which Emax [1] did it give?
Its Emax is > 50%.

And the IC50 [1]?
Its IC50 is < 50 µM.

What about the “WT_DSF_hSWAT Tm Shift (° C.)” value (hSTING-R232 (aa140-379)) of the same molecule?
Its value is “D (“D” >7° C.)”.

And the IC50 [2]?
Its IC50 is < 20 µM.

Which Emax [1] does the source give for `CN(C)c1c(Cl)ccc2c(=O)c3ccc(-c4ccccc4)cc3n(CC(=O)O)c12` [Compound 11] here?
Its Emax is > 50%.

What about the IC50 [1] of the same molecule?
Its IC50 is < 50 µM.

What about the “WT_DSF_hSWAT Tm Shift (° C.)” value (hSTING-R232 (aa140-379)) of the same molecule?
Its value is “D (“D” >7° C.)”.

What about the IC50 [2] of the same molecule?
The IC50 was < 20 µM.

For `Cc1noc(C)c1-c1ccc2c(=O)c3ccc(Cl)c(N(C)C)c3n(CC(=O)O)c2c1` [Compound 12], which “WT_DSF_hSWAT Tm Shift (° C.)” value (hSTING-R232 (aa140-379)) is on record?
The value was “C (“C” = 2-7° C.)”.

What about the IC50 [2] of the same molecule?
The IC50 was 20 to 100 µM.

Which Emax [1] does the source give for `CN(C)c1c(Cl)ccc2c(=O)c3ccc(-c4cnoc4)cc3n(CC(=O)O)c12` [Compound 13] here?
The Emax was > 50%.

And the IC50 [1]?
Its IC50 is < 50 µM.

And the “WT_DSF_hSWAT Tm Shift (° C.)” value (hSTING-R232 (aa140-379))?
The value was “D (“D” >7° C.)”.

What does the source list for `CN(C)c1c(Cl)ccc2c(=O)c3ccc(-c4cc[nH]c4)cc3n(CC(=O)O)c12` [Compound 14]?
Emax [1]: > 50%; IC50 [1]: < 50 µM; WT_DSF_hSWAT Tm Shift (° C.) (hSTING-R232 (aa140-379)): D (“D” >7° C.); IC50 [2]: < 20 µM

With `CN(C)c1c(Cl)ccc2c(=O)c3ccc(C4=CCN(C(=O)OC(C)(C)C)CC4)cc3n(CC(=O)O)c12` [Compound 15] as the molecule, how does the Emax [1] read?
The Emax was > 50%.

And the IC50 [1]?
The IC50 was < 50 µM.

What about the “WT_DSF_hSWAT Tm Shift (° C.)” value (hSTING-R232 (aa140-379)) of the same molecule?
The value was “D (“D” >7° C.)”.

And the IC50 [2]?
Its IC50 is < 20 µM.

How did the Emax [1] turn out when `CN(C)c1c(Cl)ccc2c(=O)c3ccc(C4=CCOC4)cc3n(CC(=O)O)c12` [Compound 16] was run?
The Emax was > 50%.

And the IC50 [1]?
Its IC50 is < 50 µM.

What about the “WT_DSF_hSWAT Tm Shift (° C.)” value (hSTING-R232 (aa140-379)) of the same molecule?
The value was “D (“D” >7° C.)”.

And the IC50 [2]?
Its IC50 is < 20 µM.

Which Emax [1] does the source give for `CN(C)c1c(Cl)ccc2c(=O)c3ccc(-c4ccn(C(=O)OC(C)(C)C)c4)cc3n(CC(=O)O)c12` [Compound 17] here?
Its Emax is > 50%.

What about the IC50 [1] of the same molecule?
The IC50 was < 50 µM.

What about the “WT_DSF_hSWAT Tm Shift (° C.)” value (hSTING-R232 (aa140-379)) of the same molecule?
The value was “D (“D” >7° C.)”.

What about the IC50 [2] of the same molecule?
The IC50 was < 20 µM.

How did the Emax [1] turn out when `CC/C=C(\CC)c1ccc2c(=O)c3ccc(Cl)c(OC)c3n(CC(=O)O)c2c1` [Compound 18] was run?
Its Emax is > 50%.

And the IC50 [1]?
The IC50 was < 50 µM.

What about the “WT_DSF_hSWAT Tm Shift (° C.)” value (hSTING-R232 (aa140-379)) of the same molecule?
Its value is “D (“D” >7° C.)”.

What about the IC50 [2] of the same molecule?
Its IC50 is 20 to 100 µM.

Which Emax [1] does the source give for `CC/C=C(\CC)c1ccc2c(=O)c3ccc(Cl)c(N(C)C)c3n(CC(=O)O)c2c1` [Compound 19] here?
Its Emax is > 50%.

And the IC50 [1]?
The IC50 was < 50 µM.

What about the “WT_DSF_hSWAT Tm Shift (° C.)” value (hSTING-R232 (aa140-379)) of the same molecule?
Its value is “D (“D” >7° C.)”.

What about the IC50 [2] of the same molecule?
Its IC50 is < 20 µM.

What does the source list for `CN(C)c1c(Cl)ccc2c(=O)c3ccc(Br)cc3n(CC(=O)O)c12` [Compound 20]?
Emax [1]: > 50%; IC50 [1]: < 50 µM; WT_DSF_hSWAT Tm Shift (° C.) (hSTING-R232 (aa140-379)): D (“D” >7° C.); IC50 [2]: < 20 µM
